Results published in ChEMBL document CHEMBL5370684, “Small-Molecule Heterocyclic Compounds: Gq-Biased Agonists for the 5-HT2A Receptor in Neuropsychiatric Treatment” (ACS Med Chem Lett, 2023).

How the values were obtained:
[1] = target: T1, 5-hydroxytryptamine receptor 2A (Homo sapiens, UniProt P28223); test: Agonist activity at RLuc-fused 5-HT2A (unknown origin) expressed in HEK293T cells co-transfected with mVenus-fused beta arrestin-2/GRK2 assessed as beta arrestin-2 recruitment at 0.1 to 10 uM incubated for 30 mins using coelenterazine h as a substrate by BRET assay relative to control; type: functional, cell-based; conditions: dose 0.1-10 µM
T1 sequence (P28223 whole entry, the tested form may be a part): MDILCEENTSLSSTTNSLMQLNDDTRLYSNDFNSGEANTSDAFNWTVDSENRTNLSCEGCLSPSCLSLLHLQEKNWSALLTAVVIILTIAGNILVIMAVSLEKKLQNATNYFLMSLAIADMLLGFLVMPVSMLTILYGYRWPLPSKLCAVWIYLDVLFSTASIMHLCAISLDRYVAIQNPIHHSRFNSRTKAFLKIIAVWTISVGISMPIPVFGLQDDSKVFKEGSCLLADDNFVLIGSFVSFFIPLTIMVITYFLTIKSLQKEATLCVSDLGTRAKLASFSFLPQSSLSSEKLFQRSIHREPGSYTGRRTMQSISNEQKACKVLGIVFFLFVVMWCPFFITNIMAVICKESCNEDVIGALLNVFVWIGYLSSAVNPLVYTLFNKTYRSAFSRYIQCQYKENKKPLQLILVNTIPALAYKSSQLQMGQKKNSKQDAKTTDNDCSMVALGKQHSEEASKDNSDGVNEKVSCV

[2] = target: T1, 5-hydroxytryptamine receptor 2A; test: Agonist activity at 5-HT2A (unknown origin) expressed in HEK293T cells co-transfected with RLuc-fused Galphaq/GFP2/Gy9/Gbeta3 assessed as Gaq hetero trimeric G protein activation at 0.1 to 10 uM incubated for 30 mins using coelenterazine 400a as a substrate by BRET assay relative to control; type: functional, cell-based; conditions: filed as agonist, dose 0.1-10 µM
[3] = target: T1, 5-hydroxytryptamine receptor 2A; test: Agonist activity at 5-HT2A (unknown origin) expressed in HEK293T cells co-transfected with RLuc-fused Galphaq/GFP2/Gy9/Gbeta3 assessed as Gaq hetero trimeric G protein activation incubated for 30 mins using coelenterazine 400a as a substrate by BRET assay; type: functional, cell-based
[4] = target: T1, 5-hydroxytryptamine receptor 2A; test: Agonist activity at RLuc-fused 5-HT2A (unknown origin) expressed in HEK293T cells co-transfected with mVenus-fused beta arrestin-2/GRK2 assessed as beta arrestin-2 recruitment incubated for 30 mins using coelenterazine h as a substrate by BRET assay; type: functional, cell-based
[5] = target: T1, 5-hydroxytryptamine receptor 2A; test: Displacement of [3H]-LSD form 5-HT2A (unknown origin) expressed in Flp-In-T-Rex-293 membrane by Microbeta scintillation counting analysis; type: cell membranes

Row | SMILES | Emax ([1]; filed as agonist) [%] | Emax [2] [%] | Emax [1] [%] | EC50 [3] [nM] | EC50 [4] [nM] | Ki [5] [nM]
1 | Clc1ccc2[nH]cc(C3=CCCNC3)c2c1 | 77.3 | 102 |  |  |  | 
2 | C1=C(c2c[nH]c3cccc(-c4ccccc4)c23)CNCC1 |  | 59.6 | 15.1 | 874 | 358 | 14
3 | Fc1ccc(Cl)c2[nH]nc(C3=CCCNC3)c12 | 72.7 | 106 |  |  |  | 
4 | CC(C)c1ccc2[nH]cc(C3=CCCNC3)c2c1 |  | 58.8 | 31.4 |  |  | 
5 | COc1cccc2[nH]cc(C3=CCCNC3)c12 | 51.8 | 96.1 |  |  |  | 
6 | CN1CCC=C(c2n[nH]c3c(Cl)ccc(F)c23)C1 | 50.9 | 95.4 |  |  |  | 
7 | Cc1ccnc2[nH]cc(C3=CCCN(C)C3)c12 |  | 68.7 | 38.9 |  |  | 
8 | COc1ccnc2[nH]cc(C3=CCCN(C)C3)c12 |  | 67.1 | 32.2 |  |  | 
9 | Clc1ccc2[nH]nc(C3=CCCNC3)c2c1 | 97 | 94.8 |  |  |  | 
10 | CN1CCC=C(c2n[nH]c3cc(F)ccc23)C1 |  | 47.1 | 27 |  |  | 
11 | CN1CCC=C(c2n[nH]c3c(Cl)cc(F)cc23)C1 | 88.5 | 91.4 |  |  |  | 
12 | Cc1cccc2[nH]cc(C3=CCCNC3)c12 | 42 | 85.7 |  |  |  | 
13 | COc1cccc2[nH]cc(C3=CCCN(C)C3)c12 | 47.7 | 91 |  |  |  | 
14 | CN1CCC=C(c2c[nH]c3c(Cl)c(F)ccc23)C1 | 56.5 | 89.2 |  |  |  | 
15 | Fc1ccc2c(C3=CCCNC3)n[nH]c2c1 | 59.4 | 79.4 |  |  |  | 
16 | COc1cccc2[nH]nc(C3=CCCNC3)c12 | 75.9 | 81.7 |  |  |  | 
17 | Fc1ccc2[nH]nc(C3=CCCNC3)c2c1 | 96 | 88.3 |  |  |  | 
